Experimental data as given in patent US20230234928A1, “Novel Compounds for Treating Fibrosis and Inflammatory Conditions” (MAKScientific, LLC, priority 2020, published 2023).
Values joined by “and” are separate entries in the source; they are usually repeats but may differ in a detail not shown here. Identical values can stand only once.

What was measured:
CB2 cannabinoid receptor = CB2 cannabinoid receptor (UniProt P34972); test: CB2 competition-equilibrium binding using [3H]CP-55,940; details: competition binding with [3H]CP-55,940; read-out: CB2 cannabinoid receptor binding affinity (Ki)
Description: (§1) HEK293 cells expressing hCB1, hCB2 or mCB2 receptor are used for membrane preparations according to the method described in J Neurochem 1999, 72, (5), 2032-8, herein incorporated by reference in its entirety. The resulting pellet is resuspended in 10 mM Tris-chloride, pH 7.4 with 5 mM MgCl2 and 2 mM EDTA (TME), and stored at −80° C. for no longer than two months. Protein content is assayed by using the Bio-Rad DC protein assay according to the manufacturer's protocol.
(§2) The compound was tested for its ability to bind to CB1 and CB2 receptors using rat brain or HEK293 cell membranes expressing hCB2 and mCB2 membrane preparations, respectively, as described in J Med Chem 1999, 42, (4), 769-776, J Med Chem 1994, 37, (23), 3867-70 and Life Sci 1995, 56, (23-24), 1957-62 (each herein incorporated by reference in its entirety) via competition-equilibrium binding using [^3H]CP-55,940. The results were analyzed using nonlinear regression to determine the actual IC50 of the ligand (Prizm by GraphPad Software, Inc.) and the Ki values are calculated from the IC50 as described in Biochemical Pharmacology 1973, 22, (23), 3099-3108; herein incorporated by reference in its entirety.

C57BL/6 mice = test: diabetic (STZ) high-fat diet mouse NASH model; format: in vivo; details: 10 mg/kg PO daily; for fibrosis scores: vs control group
Description: Timed pregnant female C57BL/6 mice (Jackson Laboratories, USA) were obtained and housed with a cardboard hut for birthing and nursing of pups (enrichment), in an AAALAC-accredited vivarium, prefilled with corn cob bedding on a 12-hour light-dark at 68-74° F. and 30-70% humidity. Pregnant female mice were fed water and a standard rodent diet (Teklad irradiated 2918) ad libitum consisting of 18% protein, 5% fat, and 5% fiber. Three days post birth, pups from all litters received streptozotocin (STZ), i.p. at 200 mg/kg, to induce a mild to moderate hyperglycemia and insulin insufficiency. Random blood glucose was measured at weaning when pups were 25 days old. At weaning, mice were fed water and a standard rodent diet (Teklad irradiated 2918) ad libitum consisting of 18% protein, 5% fat, and 5% fiber. At 4 weeks of age, male mice were randomized into 7 study groups based on a random blood glucose (RBG) between 200-750 mg/dl and were switched from the standard rodent diet to the modified high fat diet (HFD), Research Diets D09100310 for the remainder of the study. Following 3 weeks of HFD feeding, test article and vehicle control dose administration was initiated and continued for up to 9 weeks. Body weights were measured at least twice a week from dose initiation through study end/termination. HFD was changed weekly with the old food being discarded. Animals had random blood glucose measured every 3 weeks and at termination. Clinical observations were performed daily from receipt/birth and continued through study end. Compound 1 and rimonabant were stored at −20° C. prior to drug preparation. Following three weeks of modified diet feeding, dose initiation of the compounds began and continued for up to 9 weeks. Test compounds were dissolved in 2% dimethyl sulfoxide, followed by 8% Tween-80 and 8% propylene glycol. Saline was added slowly to this solution with sonication prior to administration. Animals were dosed at 10 mg/kg via oral gavage (PO), daily, for up to 9 weeks.
Livers were scored for both NAS and NASH parameters. […] Fibrosis was observed across all study groups. […] Lobular inflammation was present across all NASH study groups thus indicating inflammatory cell infiltration. Following 9 weeks of treatment with Compound 1, lobular inflammation was reduced.

CB1 cannabinoid receptor = target: T1, CB1 cannabinoid receptor (Homo sapiens, UniProt P21554); test: CB1 competition-equilibrium binding using [3H]CP-55,940; details: competition binding with [3H]CP-55,940; FIG. 1: hCB1-HEK292 cells; read-out: CB1 cannabinoid receptor binding affinity (Ki)
T1 construct: expressed in transfected cells; host or cells: HEK293
T1 sequence (P21554 whole entry): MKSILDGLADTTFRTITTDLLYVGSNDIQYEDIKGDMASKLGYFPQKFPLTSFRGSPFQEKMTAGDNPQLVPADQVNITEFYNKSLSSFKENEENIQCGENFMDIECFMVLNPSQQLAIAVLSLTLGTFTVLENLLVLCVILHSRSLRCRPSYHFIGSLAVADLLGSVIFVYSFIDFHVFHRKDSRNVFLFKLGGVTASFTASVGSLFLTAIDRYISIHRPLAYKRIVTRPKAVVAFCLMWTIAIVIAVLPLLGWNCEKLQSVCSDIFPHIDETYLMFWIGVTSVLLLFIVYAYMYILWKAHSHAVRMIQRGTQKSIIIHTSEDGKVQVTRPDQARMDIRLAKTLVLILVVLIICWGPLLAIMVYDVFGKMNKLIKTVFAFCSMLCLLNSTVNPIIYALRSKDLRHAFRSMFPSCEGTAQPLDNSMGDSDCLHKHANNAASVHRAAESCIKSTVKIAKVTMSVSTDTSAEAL
Description: as §1
Frozen rat brains (CB1 source) are obtained from Pel-Freeze Biologicals (Rogers, Ak.) and stored at −80° C. until use. […]
as §2

CB1 = target: T2, CB1 (Mus musculus, UniProt P47746); test: in vivo CB1 antagonism (hypothermia) in male CD1 mice; details: 10 mg/kg i.p. test compound, 30 mg/kg Δ9-THC, male CD-1 mice, rectal temperature
T2 construct: tissue Charles River; host or cells: whole animal, male CD-1 mice
T2 sequence (P47746 whole entry): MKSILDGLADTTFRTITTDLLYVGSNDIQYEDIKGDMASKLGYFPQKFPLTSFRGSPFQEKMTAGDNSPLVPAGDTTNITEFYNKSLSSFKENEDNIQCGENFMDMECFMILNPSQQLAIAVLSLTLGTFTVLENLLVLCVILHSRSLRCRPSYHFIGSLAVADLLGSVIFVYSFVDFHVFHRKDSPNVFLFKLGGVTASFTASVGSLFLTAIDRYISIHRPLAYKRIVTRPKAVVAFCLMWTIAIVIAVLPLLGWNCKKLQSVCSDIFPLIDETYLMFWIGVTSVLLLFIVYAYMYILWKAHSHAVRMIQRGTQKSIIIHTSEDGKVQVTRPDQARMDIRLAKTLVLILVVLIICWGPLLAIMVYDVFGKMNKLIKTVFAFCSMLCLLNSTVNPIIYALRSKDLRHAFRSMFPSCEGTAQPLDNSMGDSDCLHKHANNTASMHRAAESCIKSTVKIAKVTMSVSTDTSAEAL
Description: Male CD-1 mice (Charles River, Wilmington, Mass., USA) aged 4-6 weeks weighing between 25-35 gm were chosen for in vivo CB1 antagonism testing. The mice were housed 4 per cage with free access to food and water. The temperature of the vivarium was 25° C. with a non-reversed 12 hrs light/dark cycle (lights on 7 am). Mice were habituated to the vivarium for at least one week before any experiments were performed. All experimental procedures were pre-approved by The Animal Care and Use Committee of Northeastern University, Boston, Mass., USA. The “Principles of Animal Laboratory Care” (National Institute of Health 1996) was followed. The test compound (10 mg/kg) was dissolved in 4% dimethyl sulfoxide, followed by 8% Tween-80 and 8% propylene glycol. Saline was added slowly to this solution with sonication prior to administration. Δ^9-THC was initially dissolved in 2% dimethyl sulfoxide, followed by 4% Tween-80 and 4% propylene glycol. Saline was added slowly to this drug solution with sonication prior to administration. All administrations were i.p. at a volume of 10 ml/kg. […] Core temperature was measured using a rectal probe of a digital laboratory thermometer, RET-3-ISO, type T thermocouple (Physitemp Instruments Inc., Clifton, N.J.). The probe was inserted 2 cm into the rectum for ≈20 to 30 seconds at which time the rectal temperature readings had stabilized.

Structure (SMILES) | Ki (CB2 cannabinoid receptor) [nM] | lobular inflammation (C57BL/6 mice; 9 weeks of treatment, liver) | steatosis (C57BL/6 mice; 9 weeks of treatment, liver) | fibrosis scores (C57BL/6 mice; 9 weeks of treatment, liver) | inflammation and fibrosis (overall) (C57BL/6 mice; up to 9 weeks) | animal survival (C57BL/6 mice; up to 9 weeks, compared to rimonabant) | Ki (CB1 cannabinoid receptor) | antagonism of hypothermic effects induced by the CB1 agonist Δ9-THC (CB1)
Cc1c(C(=O)NN2CCS(=O)(=O)CC2)nc(-c2ccc(Cl)cc2Cl)n1-c1ccc(C#CCCC#N)cc1 [Compound 1, 1-(4-(4-cyanobut-1-yn-1-yl)phenyl)-2-(2,4-dichlorophenyl)-N-(1,1-dioxidothiomorpholino)-5-methyl-1H-imidazole-4-carboxamide] | > 1000 | reduced | decreased | statistically significant when compared to the control group | markedly attenuated or delayed the inflammation and fibrosis | increased animal survival as compared to rimonabant | 1 nM and ~1 nM | inability of 10 mg/kg of compound 1 to antagonize the hypothermic effects
Cc1c(C(=O)NN2CCCCC2)nn(-c2ccc(Cl)cc2Cl)c1-c1ccc(Cl)cc1 [rimonabant, 5-(4-chlorophenyl)-1-(2,4-dichlorophenyl)-4-methyl-N-(piperidin-1-yl)-1H-pyrazole-3-carboxamide, reference compound] |  |  | decreased | statistically significant when compared to the control group |  |  |  | 
